Results published in ChEMBL document CHEMBL1201862, “PubChem BioAssay data set” (2004).
The source made the active and inactive calls.

Assays:
[1] = viability of uninfected HEp-2 cells – cell-based, HTS, cytotoxicity control for RSV inhibitor project, dose response (AID 2410); type: functional; conditions: human respiratory syncytial virus
[2] = biological target: T1, Voltage-dependent T-type calcium channel subunit alpha-1H (Homo sapiens, UniProt O95180); type: functional
[3] = biological target: T1, Voltage-dependent T-type calcium channel subunit alpha-1H; experiment: Inhibitors of T-Type Calcium Channels. [Related pubchem assays (depositor defined):AID449739, AID463087, AID489005, AID493041, AID504579, AID504584, AID504619, AID504628]; type: functional
[4] = biological target: Cyclin-dependent kinase 5/CDK5 activator 1 (Homo sapiens, UniProt Q00535); experiment: blockade of human CDK5 activity – biochemical, cherry-picked samples, set 2, dose response (AID 504545)
Chain of Cyclin-dependent kinase 5/CDK5 activator 1 (Q00535 whole entry): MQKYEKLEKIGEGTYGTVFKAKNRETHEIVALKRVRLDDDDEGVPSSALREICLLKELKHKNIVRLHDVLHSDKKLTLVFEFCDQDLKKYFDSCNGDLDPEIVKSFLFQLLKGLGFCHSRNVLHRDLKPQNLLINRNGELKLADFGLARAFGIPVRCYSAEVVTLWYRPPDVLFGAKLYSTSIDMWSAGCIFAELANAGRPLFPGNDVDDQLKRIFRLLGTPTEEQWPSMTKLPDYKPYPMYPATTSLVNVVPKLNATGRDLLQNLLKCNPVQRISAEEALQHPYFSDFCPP
Chain of Cyclin-dependent kinase 5/CDK5 activator 1 (Q15078 whole entry, further chain): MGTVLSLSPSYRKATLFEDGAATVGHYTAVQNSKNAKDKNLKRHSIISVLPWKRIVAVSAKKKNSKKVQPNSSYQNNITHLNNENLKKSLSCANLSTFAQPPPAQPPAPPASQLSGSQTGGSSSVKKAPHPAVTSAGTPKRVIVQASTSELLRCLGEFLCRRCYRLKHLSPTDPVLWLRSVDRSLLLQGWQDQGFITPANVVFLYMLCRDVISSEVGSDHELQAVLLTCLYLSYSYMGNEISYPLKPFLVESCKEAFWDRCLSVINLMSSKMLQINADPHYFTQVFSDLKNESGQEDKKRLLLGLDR

[5] = biological target: Cystic fibrosis transmembrane conductance regulator/Golgi-associated PDZ and coiled-coil motif-containing protein (Homo sapiens, UniProt P13569+Q9HD26); experiment: potency against CAL PDZ-peptide interaction – biochemical, fluorescence polarization, Cerulean-tagged CAL PDZ, cherry-picks, dose response (AID 504773)
[6] = viability of HCT116 lacking mutant beta-catenin – cell-based, human colon tumor, dose response (AID 1045); type: functional;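 further: HCT116 colon tumor cells with beta catenin knocked out; cells exposed to compound for 60 hours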
[7] = test system: Vero; experiment: cells; type: functional; conditions: Chlorocebus sabaeus
[8] = fluconazole-exposed Candida albicans growth modulators – fluorescence, retest, confirmation (AID 2467); type: functional, cell-based
[9] = biological target: Neurotensin receptor type 1 (Homo sapiens, UniProt P30989); type: functional;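 further: Image-based confirmatory dose-response assay measuring agonist activity at NTR1; NTR1-expressing U2OS osteosarcoma cells imaged for beta-arrestin GFP spot formation; agonist potency where compounds increase beta-arrestin recruitment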
Chain of Neurotensin receptor type 1 (P30989 whole entry): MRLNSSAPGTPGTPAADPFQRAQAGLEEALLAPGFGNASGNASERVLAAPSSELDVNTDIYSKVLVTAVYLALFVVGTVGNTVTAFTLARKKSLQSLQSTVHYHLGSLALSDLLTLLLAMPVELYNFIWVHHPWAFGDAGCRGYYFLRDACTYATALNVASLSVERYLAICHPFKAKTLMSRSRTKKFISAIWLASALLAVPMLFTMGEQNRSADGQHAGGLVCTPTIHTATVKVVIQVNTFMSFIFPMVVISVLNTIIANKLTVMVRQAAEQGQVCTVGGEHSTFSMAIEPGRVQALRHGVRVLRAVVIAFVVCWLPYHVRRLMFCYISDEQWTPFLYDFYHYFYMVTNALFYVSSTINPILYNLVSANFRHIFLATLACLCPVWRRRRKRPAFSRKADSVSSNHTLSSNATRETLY

[10] = NIH-3T3 fibroblast cytotoxicity, dose response, cytotoxicity control, cell-based, fluorescence, Alamar Blue, secondary assay (AID 2327); type: functional;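 further: NIH-3T3 mouse fibroblasts cultured with fluconazole at 8 µg/mL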
[11] = test system: Vero; experiment: cells; type: functional, cell-based; conditions: Chlorocebus sabaeus
[12] = viability of PTEN-deleted HCT116 cells – cell-based, HCT116 PTEN knockout, dose response (AID 1047); type: functional;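 further: HCT116 colon tumor cells with PTEN knocked out; cells exposed to compound for 60 hours before readout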
[13] = biological target: T2, Neuropeptide Y receptor type 2 (Homo sapiens, UniProt P49146); type: functional, cell-based;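 further: HEK293 cells expressing the receptor and a CNG channel; stimulus was NPY near EC95 followed by isoproterenol to raise cAMP; antagonist potency measured as restoring cAMP signal that NPY suppresses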
T2 sequence (P49146 whole entry): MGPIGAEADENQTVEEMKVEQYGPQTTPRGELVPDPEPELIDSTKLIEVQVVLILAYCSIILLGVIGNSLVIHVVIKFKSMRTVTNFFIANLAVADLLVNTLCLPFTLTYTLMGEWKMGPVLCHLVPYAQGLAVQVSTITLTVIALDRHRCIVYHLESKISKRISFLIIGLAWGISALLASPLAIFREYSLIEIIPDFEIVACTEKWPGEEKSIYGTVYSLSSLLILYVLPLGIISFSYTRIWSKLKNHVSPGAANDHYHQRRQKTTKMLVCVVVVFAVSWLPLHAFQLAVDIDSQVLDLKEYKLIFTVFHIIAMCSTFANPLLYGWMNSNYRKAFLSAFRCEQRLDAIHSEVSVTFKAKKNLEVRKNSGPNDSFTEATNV

[14] = biological target: T3, Neuropeptide Y receptor type 1 (Homo sapiens, UniProt P25929); type: functional;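 further: HEK293 cells with a CNG channel challenged with NPY then isoproterenol; potency as antagonist that reverses NPY suppression of cAMP signal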
T3 sequence (P25929 whole entry): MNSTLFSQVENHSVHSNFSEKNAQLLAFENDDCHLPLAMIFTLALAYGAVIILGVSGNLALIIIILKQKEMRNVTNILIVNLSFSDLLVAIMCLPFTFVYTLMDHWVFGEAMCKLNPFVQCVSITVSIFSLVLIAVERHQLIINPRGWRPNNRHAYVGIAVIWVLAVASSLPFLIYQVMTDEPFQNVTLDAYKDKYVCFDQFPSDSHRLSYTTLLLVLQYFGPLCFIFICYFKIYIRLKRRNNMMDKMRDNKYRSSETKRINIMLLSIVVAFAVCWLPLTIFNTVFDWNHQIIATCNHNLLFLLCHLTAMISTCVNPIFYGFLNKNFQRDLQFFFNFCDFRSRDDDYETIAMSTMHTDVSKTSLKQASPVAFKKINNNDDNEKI

[15] = biological target: G2/mitotic-specific cyclin-B1 (Homo sapiens, UniProt P14635); experiment: HeLa cell cycle G2/M accumulation – FACS, mechanism study for Wee1 degradation inhibitor project, late-stage follow-up, panel member Cyclin B Degradation (AID 2088)
Chain of G2/mitotic-specific cyclin-B1 (P14635 whole entry): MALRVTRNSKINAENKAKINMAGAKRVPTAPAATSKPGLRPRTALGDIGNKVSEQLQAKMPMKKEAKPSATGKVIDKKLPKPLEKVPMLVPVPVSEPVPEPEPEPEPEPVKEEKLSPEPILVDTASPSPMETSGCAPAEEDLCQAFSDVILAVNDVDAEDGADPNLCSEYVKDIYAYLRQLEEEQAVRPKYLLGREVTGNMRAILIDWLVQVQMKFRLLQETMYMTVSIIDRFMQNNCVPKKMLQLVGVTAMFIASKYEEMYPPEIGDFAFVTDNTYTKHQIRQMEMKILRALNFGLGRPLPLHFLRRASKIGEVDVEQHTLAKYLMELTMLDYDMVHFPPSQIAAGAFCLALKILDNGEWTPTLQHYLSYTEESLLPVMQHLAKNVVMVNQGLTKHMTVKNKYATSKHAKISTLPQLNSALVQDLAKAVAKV

[16] = biological target: Wee1-like protein kinase (Homo sapiens, UniProt P30291); experiment: HeLa cell cycle G2/M accumulation – FACS, mechanism study for Wee1 degradation inhibitor project, late-stage follow-up, panel member Wee1 Degradation (AID 2088)
Chain of Wee1-like protein kinase (P30291 whole entry): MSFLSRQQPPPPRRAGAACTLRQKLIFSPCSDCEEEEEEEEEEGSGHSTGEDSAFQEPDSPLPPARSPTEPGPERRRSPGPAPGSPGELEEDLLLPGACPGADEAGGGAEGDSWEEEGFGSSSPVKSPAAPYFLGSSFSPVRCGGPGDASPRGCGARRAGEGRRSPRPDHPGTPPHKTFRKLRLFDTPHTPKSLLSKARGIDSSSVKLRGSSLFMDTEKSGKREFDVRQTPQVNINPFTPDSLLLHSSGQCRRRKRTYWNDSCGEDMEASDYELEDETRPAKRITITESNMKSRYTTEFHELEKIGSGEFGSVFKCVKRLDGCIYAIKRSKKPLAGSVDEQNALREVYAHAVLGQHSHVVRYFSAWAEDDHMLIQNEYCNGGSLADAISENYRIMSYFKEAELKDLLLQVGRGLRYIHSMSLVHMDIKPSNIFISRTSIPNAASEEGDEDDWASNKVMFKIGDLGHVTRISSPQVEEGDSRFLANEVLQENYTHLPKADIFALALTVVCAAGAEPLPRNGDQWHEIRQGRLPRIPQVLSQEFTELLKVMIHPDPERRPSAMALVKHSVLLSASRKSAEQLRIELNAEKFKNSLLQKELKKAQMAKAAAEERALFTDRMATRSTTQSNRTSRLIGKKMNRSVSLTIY

[17] = biological target: T4, Cysteine protease ATG4B (Homo sapiens, UniProt Q9Y4P1); type: functional;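 further: Fluorescence-based dose-response confirmation assay measuring inhibition of ATG4B activity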
T4 sequence (Q9Y4P1 whole entry): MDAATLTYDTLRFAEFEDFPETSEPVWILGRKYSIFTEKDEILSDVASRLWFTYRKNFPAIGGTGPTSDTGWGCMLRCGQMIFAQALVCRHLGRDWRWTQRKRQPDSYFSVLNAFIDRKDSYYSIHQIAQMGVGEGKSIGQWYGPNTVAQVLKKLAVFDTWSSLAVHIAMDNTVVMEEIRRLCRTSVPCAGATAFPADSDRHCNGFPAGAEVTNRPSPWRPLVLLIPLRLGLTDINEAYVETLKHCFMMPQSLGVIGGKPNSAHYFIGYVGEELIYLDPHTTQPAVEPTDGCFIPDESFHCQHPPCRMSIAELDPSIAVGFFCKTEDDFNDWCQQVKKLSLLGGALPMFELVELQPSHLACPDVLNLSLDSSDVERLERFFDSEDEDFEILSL

[18] = biological target: Cytochrome P450 2D6 (Homo sapiens, UniProt P10635);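 further: CYP2D6 member of a cytochrome P450 panel assay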
[19] = biological target: T5, Hexokinase HKDC1 (Homo sapiens, UniProt Q2TB90); experiment: inhibition of HKDC1 glucose phosphorylation – biochemical, W721R variant, dose response (AID 504729); type: functional
T5 sequence (Q2TB90 whole entry): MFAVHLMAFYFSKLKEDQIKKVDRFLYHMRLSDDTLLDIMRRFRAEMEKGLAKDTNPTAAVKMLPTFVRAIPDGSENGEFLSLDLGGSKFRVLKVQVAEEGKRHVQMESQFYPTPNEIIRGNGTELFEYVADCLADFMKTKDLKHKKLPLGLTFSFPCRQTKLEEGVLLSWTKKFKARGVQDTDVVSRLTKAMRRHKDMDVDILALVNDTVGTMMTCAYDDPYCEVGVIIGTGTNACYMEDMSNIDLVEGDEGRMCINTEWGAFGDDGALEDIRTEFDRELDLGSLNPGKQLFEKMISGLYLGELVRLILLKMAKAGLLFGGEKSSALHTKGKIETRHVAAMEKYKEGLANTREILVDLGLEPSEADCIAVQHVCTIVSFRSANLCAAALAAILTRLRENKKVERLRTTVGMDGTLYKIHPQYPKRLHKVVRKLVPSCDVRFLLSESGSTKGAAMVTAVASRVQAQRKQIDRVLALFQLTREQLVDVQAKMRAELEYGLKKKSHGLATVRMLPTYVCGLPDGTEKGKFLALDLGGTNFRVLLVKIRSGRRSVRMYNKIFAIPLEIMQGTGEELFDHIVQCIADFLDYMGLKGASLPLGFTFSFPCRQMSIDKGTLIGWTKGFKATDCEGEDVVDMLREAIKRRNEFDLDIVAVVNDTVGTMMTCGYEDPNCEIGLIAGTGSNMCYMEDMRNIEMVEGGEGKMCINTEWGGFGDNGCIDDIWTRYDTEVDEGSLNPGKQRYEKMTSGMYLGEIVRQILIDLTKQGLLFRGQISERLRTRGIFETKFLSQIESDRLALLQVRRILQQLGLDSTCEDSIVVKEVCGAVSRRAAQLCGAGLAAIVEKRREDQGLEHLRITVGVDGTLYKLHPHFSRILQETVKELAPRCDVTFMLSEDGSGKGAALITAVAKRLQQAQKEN

[20] = biological target: T6, Apoptotic protease-activating factor 1 (Homo sapiens, UniProt O14727); type: functional
T6 sequence (O14727 whole entry): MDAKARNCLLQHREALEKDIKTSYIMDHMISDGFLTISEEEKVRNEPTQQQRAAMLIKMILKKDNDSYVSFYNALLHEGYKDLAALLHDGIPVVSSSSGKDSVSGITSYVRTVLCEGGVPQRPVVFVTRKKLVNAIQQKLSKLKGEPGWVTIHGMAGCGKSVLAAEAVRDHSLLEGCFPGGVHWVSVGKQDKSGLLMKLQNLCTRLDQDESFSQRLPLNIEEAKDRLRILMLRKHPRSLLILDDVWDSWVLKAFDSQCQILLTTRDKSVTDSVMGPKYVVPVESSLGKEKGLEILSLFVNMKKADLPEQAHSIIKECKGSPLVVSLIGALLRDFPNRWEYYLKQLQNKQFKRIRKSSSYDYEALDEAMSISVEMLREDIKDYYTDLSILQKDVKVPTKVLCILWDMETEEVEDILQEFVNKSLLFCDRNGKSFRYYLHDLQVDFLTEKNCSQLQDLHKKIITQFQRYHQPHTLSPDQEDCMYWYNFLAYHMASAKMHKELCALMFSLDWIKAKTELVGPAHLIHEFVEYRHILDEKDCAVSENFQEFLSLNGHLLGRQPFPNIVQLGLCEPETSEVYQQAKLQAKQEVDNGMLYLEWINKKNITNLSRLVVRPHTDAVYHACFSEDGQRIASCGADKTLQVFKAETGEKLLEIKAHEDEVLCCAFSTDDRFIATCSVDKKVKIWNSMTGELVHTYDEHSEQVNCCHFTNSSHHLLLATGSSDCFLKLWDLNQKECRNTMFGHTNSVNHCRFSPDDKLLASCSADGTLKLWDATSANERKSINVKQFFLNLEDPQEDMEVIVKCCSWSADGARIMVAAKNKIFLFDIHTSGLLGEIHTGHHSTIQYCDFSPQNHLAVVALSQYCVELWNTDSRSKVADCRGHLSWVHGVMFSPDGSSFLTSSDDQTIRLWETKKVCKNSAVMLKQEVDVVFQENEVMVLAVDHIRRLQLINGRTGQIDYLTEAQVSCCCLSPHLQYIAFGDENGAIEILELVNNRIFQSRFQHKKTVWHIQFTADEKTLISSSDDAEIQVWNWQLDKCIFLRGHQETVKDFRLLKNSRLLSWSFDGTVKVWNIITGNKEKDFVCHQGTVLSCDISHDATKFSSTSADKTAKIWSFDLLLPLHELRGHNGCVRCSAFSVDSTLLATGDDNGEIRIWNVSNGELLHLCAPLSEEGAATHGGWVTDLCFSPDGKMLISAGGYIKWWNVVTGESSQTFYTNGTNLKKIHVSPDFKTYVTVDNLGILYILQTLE

[21] = microbe, parasite or virus in culture; type: functional; conditions: Mycobacterium tuberculosis
[22] = viability loss in HeLa cells – cytotoxicity control for MgcRacGAP inhibitor project, dose response (AID 624300); type: functional
[23] = biological target: T7, Rac GTPase-activating protein 1 (Homo sapiens, UniProt Q9H0H5); experiment: blockers of MgcRacGAP-driven Rac1 GTP hydrolysis – biochemical, ADP Hunter fluorescence, primary and confirmatory, confirmation (AID 624330); type: functional
T7 sequence (Q9H0H5 whole entry): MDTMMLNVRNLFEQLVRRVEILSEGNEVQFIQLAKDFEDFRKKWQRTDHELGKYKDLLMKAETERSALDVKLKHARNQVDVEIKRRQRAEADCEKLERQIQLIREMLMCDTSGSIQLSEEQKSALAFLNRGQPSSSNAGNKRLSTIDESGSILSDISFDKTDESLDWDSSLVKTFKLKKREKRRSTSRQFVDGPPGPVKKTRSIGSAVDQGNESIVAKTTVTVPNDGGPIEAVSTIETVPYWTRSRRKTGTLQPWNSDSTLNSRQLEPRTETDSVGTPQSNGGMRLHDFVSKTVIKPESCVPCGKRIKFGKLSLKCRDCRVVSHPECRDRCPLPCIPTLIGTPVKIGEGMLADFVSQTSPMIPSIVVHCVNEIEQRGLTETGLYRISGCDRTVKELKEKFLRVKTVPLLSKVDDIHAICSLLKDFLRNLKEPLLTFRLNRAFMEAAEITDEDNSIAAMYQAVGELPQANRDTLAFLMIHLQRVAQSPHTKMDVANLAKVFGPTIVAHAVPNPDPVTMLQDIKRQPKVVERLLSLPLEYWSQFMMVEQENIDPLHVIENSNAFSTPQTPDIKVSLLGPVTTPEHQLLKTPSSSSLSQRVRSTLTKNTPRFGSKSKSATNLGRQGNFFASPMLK

[24] = test system: CHO; experiment: CHO cell viability loss, potency – luminescence, cytotoxicity control for TLR9-MyD88 binding inhibitor project, dose response (AID 588339); type: functional, cell-based, hamster; conditions: Cricetulus griseus;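 further: CHO cells stably coexpressing TLR9 and MyD88 fusions from primary screen; compound exposure lasted 48 hours before viability readout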
[25] = biological target: Large T antigen (Simian virus 40, UniProt P03070); type: functional, Betapolyomavirus macacae;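 further: Confirmatory-stage PubChem screen for compounds that inhibit SV40 T antigen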
[26] = biological target: Beta Lactamase (Pseudomonas aeruginosa, UniProt Q932Y6); experiment: BLA reporter interference, concentration series – BLA reporter cells, FRET fluorescence, artefact control for TLR9-MyD88 binding inhibitor project, dose response (AID 588341); type: cell-based;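 further: cell based assay in CHO-K1 cells stably expressing beta-lactamase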
Chain of Beta Lactamase (Q932Y6 whole entry): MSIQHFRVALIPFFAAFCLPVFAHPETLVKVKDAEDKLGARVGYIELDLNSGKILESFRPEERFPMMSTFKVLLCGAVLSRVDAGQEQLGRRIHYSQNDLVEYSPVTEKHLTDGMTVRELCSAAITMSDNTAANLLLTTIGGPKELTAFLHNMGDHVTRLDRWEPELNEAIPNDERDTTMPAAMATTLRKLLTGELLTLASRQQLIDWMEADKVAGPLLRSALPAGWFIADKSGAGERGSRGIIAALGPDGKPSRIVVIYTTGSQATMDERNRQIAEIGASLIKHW

[27] = biological target: Phospholipase A2 (Homo sapiens, UniProt P04054); type: functional;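 further: confirmatory dose-response counterscreen on phospholipase A2, testing hits that came from an ultra-high-throughput screen for ATG4B inhibitors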
Chain of Phospholipase A2 (P04054 whole entry): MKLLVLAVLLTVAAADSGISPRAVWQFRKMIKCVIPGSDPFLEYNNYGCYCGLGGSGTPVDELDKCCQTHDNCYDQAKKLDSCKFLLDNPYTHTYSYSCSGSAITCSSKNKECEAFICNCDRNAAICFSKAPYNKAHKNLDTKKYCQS

T1 sequence (O95180 whole entry): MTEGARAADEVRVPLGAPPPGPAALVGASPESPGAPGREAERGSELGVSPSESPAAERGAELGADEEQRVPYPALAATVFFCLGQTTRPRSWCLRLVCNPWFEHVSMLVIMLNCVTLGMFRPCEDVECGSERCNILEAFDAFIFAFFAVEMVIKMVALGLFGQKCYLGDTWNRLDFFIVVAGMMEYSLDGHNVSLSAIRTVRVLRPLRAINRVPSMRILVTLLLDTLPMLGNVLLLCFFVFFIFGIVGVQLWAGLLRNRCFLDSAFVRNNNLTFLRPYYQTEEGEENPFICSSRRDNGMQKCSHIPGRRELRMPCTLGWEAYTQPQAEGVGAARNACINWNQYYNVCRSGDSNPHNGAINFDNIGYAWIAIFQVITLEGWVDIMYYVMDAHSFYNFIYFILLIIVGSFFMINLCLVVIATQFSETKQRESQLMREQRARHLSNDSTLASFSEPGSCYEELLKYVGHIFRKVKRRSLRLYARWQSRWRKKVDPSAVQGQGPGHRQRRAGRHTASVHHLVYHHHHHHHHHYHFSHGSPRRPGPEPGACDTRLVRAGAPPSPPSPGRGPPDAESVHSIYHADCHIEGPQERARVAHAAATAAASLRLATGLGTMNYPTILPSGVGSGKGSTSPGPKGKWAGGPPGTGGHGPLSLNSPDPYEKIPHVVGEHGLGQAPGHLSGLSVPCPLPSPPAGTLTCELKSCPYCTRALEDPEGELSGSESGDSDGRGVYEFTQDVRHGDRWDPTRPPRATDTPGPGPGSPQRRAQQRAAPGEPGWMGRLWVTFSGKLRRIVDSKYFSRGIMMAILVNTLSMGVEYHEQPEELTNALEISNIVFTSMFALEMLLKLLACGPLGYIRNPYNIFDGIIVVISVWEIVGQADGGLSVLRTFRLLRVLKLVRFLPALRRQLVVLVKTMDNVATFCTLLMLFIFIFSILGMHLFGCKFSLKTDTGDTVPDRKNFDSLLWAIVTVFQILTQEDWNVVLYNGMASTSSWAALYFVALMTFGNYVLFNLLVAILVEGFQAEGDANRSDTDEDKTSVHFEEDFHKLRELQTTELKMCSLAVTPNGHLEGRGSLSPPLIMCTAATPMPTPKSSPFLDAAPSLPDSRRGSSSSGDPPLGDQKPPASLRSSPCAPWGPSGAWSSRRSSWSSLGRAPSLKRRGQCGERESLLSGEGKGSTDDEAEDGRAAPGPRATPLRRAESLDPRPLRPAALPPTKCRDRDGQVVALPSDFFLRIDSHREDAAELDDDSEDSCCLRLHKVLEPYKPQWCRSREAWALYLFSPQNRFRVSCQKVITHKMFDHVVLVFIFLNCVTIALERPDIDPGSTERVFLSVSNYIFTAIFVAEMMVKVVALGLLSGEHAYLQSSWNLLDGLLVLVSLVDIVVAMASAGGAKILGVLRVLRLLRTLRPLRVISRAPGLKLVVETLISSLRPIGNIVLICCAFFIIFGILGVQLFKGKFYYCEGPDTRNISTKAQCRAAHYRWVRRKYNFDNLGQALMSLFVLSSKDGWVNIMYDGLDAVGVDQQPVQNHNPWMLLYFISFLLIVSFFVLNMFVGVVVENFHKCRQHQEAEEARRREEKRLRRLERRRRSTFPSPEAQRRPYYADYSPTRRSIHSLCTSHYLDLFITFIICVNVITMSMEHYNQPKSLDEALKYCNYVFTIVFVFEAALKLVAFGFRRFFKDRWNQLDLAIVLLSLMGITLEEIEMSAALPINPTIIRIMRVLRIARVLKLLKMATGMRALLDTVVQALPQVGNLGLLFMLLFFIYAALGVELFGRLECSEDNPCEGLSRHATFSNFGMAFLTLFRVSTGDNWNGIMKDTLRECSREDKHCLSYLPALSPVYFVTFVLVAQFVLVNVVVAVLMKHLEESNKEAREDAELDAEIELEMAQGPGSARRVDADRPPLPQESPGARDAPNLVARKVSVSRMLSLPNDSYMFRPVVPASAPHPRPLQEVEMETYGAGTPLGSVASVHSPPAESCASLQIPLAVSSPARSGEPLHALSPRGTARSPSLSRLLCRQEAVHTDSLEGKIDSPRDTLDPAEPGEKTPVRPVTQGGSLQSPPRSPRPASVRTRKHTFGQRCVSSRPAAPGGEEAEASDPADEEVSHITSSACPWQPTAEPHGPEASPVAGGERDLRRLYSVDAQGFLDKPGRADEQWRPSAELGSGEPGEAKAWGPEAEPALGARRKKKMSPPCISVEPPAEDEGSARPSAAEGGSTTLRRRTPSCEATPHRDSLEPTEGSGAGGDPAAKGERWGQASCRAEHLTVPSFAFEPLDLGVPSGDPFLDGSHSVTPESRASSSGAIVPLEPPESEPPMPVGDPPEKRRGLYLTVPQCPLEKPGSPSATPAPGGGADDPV

With `O=C(CN1CCC(n2nnc3cc(F)ccc32)CC1)Nc1ccc2c(c1)CCC2` the CC50 [1] was > 50 µM (active), the EC50 [2] was 5.76 µM (active) and the EC50 [3] was 6.67 µM (active).

With `COc1ccc(S(=O)(=O)Nc2c(C(=O)O)[nH]c3ccc(OC)cc23)c(OC)c1` the AC50 [4] was 20.6 µM (active).

For `NS(=O)(=O)c1ccc(N2N=C(c3ccccc3)CC2c2ccccc2)cc1` (configuration not stated), the AC50 [5] was 66.6 µM (active).

For `O=C(/C=C/c1cccc(Cl)c1)c1nc2ccccc2[nH]1`, the EC50 [6] was 2.2 µM (active), the CC50 [7] was 12.1 µM (active) and the EC50 [8] was 2.34 µM (active). For the same molecule, the EC50 [9] was 25.8 µM (inactive), the EC50 [10] was 67 µM (inconclusive) and the IC50 [11] was > 25 µM (active). The EC50 [12] was 2.16 µM (active), the IC50 [13] was 5.08 µM (active) and the IC50 [14] was 7.7 µM (active).

With `COc1ccc(C)cc1NC(=O)CCCOc1cc(=O)n(C)c2ccccc12` the EC50 [15] was > 49.7 µM (inactive) and the EC50 [16] was > 49.7 µM (inactive).

For `O=C1C(SCCO)=C(SCCO)C(=O)c2ccccc21`, the IC50 [17] was 12.8 µM (active), the AC50 [18] was 31.6 µM (inconclusive) and the IC50 [19] was 3.15 µM (active). The IC50 [20] was 12.7 µM (active), the CC50 [21] was 30.1 µM (active) and the CC50 [22] was 24.5 µM (active). For the same molecule, the IC50 [23] was 32.5 µM (active), the IC50 [24] was 479 nM (active) and the IC50 [25] was 26.6 µM (active). The IC50 [26] was 12.1 µM (inactive) and the IC50 [27] was 55.5 µM (inactive).
